According to US20100298141A1, “SUBSTITUTED PYRIDINE N-OXIDE HERBICIDES” (E. I. DU PONT DE NEMOURS AND COMPANY, priority 2007, published 2010):

Tests used:
[1] = system: corn; test: Test G preemergence test; format: in vivo, Zea mays; details: scale 0 to 100
[2] = system: field violet; test: Test D preemergence test; format: in vivo, Viola arvensis; details: scale 0 to 100
Method in brief: (§1)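 Seeds planted and treated preemergence with test chemicals formulated in a non-phytotoxic solvent mixture containing surfactant. A dash means no test result.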

[3] = system: annual bluegrass; test: Test D preemergence test; format: in vivo, Poa annua; details: scale 0 to 100
Method in brief: as §1

[4] = system: littleseed canarygrass; test: Test D preemergence test; format: in vivo, Phalaris minor; details: scale 0 to 100
Method in brief: as §1

[5] = system: millet; test: Test G preemergence test; format: in vivo, Panicum miliaceum; details: scale 0 to 100
[6] = system: Italian ryegrass; test: Test D preemergence test; format: in vivo, Lolium multiflorum; details: scale 0 to 100
Method in brief: as §1

[7] = system: downy bromegrass; test: Test D preemergence test; format: in vivo, Bromus tectorum; details: scale 0 to 100
Method in brief: as §1

[8] = system: goosegrass; test: Test G preemergence test; format: in vivo, Eleusine indica; details: scale 0 to 100
[9] = system: millet foxtail; test: Test G preemergence test; format: in vivo, Setaria italica; details: scale 0 to 100
[10] = system: broadleaf signalgrass; test: Test G preemergence test; format: in vivo, Brachiaria platyphylla; details: scale 0 to 100
[11] = system: green foxtail; test: Test D preemergence test; format: in vivo, Setaria viridis; details: scale 0 to 100
Method in brief: as §1

[12] = system: yellow foxtail; test: Test G preemergence test; format: in vivo, Pennisetum glaucum; details: scale 0 to 100
[13] = system: woolly cupgrass; test: Test G preemergence test; format: in vivo, Eriochloa villosa; details: scale 0 to 100
[14] = system: barnyardgrass; test: Test G preemergence test; format: in vivo, Echinochloa crus-galli; details: scale 0 to 100
[15] = system: wild oat; test: Test D preemergence test; format: in vivo, Avena fatua; details: scale 0 to 100
Method in brief: as §1

[16] = system: blackgrass; test: Test D preemergence test; format: in vivo, Alopecurus myosuroides; details: scale 0 to 100
Method in brief: as §1

[17] = system: duck salad; test: Test B flooded paddy test; format: in vivo, Heteranthera limosa; details: Flood, 250 g ai/ha, 13 to 15 days; scale 0 to 100, 0 no effect, 100 complete control
Text: (§2) At time of treatment, test pots were flooded to 3 cm above the soil surface, treated by application of test compounds directly to the paddy water, and then maintained at that water depth for the duration of the test. Treated plants and controls were maintained in a greenhouse for 13 to 15 days, after which time all species were compared to controls and visually evaluated. […] A dash (-) response means no test result.

[18] = system: umbrella sedge; test: Test B flooded paddy test; format: in vivo, Cyperus difformis; details: Flood, 250 g ai/ha, 13 to 15 days; scale 0 to 100, 0 no effect, 100 complete control
Text: as §2

[19] = system: tall waterhemp; test: Test G preemergence test; format: in vivo, Amaranthus tuberculatos; details: scale 0 to 100
[20] = system: eastern black nightshade; test: Test G preemergence test; format: in vivo, Solanum ptycanthum; details: scale 0 to 100
[21] = system: winter wheat; test: Test D preemergence test; format: in vivo, Triticum aestivum; details: scale 0 to 100
Method in brief: as §1

[22] = system: spring wheat; test: Test D preemergence test; format: in vivo, Triticum aestivum; details: scale 0 to 100
Method in brief: as §1

[23] = system: sorghum; test: Test G preemergence test; format: in vivo, Sorghum vulgare; details: scale 0 to 100
[24] = system: cotton; test: Test G preemergence test; format: in vivo, Gossypium hirsutum; details: scale 0 to 100
[25] = system: itchgrass; test: Test G preemergence test; format: in vivo, Rottboellia cochinchinensis; details: scale 0 to 100

Cc1cc[n+]([O-])c(S(=O)(=O)Cc2c(C(F)(F)F)nn(C)c2OC(F)F)c1 [Compound 2]
70: Plant response rating, Blackgrass ([16]; 62 g ai/ha)
25: Plant response rating, Wheat, Winter ([21]; 250 g ai/ha)
60: Plant response rating, Canarygrass ([4]; 62 g ai/ha) | Plant response rating, Sorghum ([23]; 125 g ai/ha)
75: Plant response rating, Millet ([5]; 125 g ai/ha)
10: Plant response rating, Corn ([1]; 250 g ai/ha) | Plant response rating, Oat, Wild ([15]; 250 g ai/ha)
95: Plant response rating, Field Violet ([2]; 125 g ai/ha) | Plant response rating, Goosegrass ([8]; 31 g ai/ha) | Plant response rating, Cupgrass, Woolly ([13]; 125 g ai/ha) | Plant response rating, Cupgrass, Woolly ([13]; 250 g ai/ha)
55: Plant response rating, Bromegrass, Downy ([7]; 250 g ai/ha) | Plant response rating, Foxtail, Green ([11]; 125 g ai/ha)
20: Plant response rating, Bluegrass ([3]; 31 g ai/ha) | Plant response rating, Bromegrass, Downy ([7]; 62 g ai/ha) | Plant response rating, Foxtail, Yellow ([12]; 62 g ai/ha) | Plant response rating, Waterhemp ([19]; 31 g ai/ha)
30: Plant response rating, Ryegrass, Italian ([6]; 125 g ai/ha) | Plant response rating, Foxtail, Green ([11]; 62 g ai/ha) | Plant response rating, Itchgrass ([25]; 125 g ai/ha)
65: Plant response rating, Signalgrass ([10]; 125 g ai/ha) | Plant response rating, Signalgrass ([10]; 250 g ai/ha) | Plant response rating, Foxtail, Green ([11]; 250 g ai/ha)
0: Plant response rating, Corn ([1]; 31 g ai/ha) | Plant response rating, Corn ([1]; 62 g ai/ha) | Plant response rating, Corn ([1]; 125 g ai/ha) | Plant response rating, Field Violet ([2]; 31 g ai/ha) | Plant response rating, Field Violet ([2]; 62 g ai/ha) | Plant response rating, Canarygrass ([4]; 31 g ai/ha) | Plant response rating, Millet ([5]; 31 g ai/ha) | Plant response rating, Millet ([5]; 62 g ai/ha) | Plant response rating, Ryegrass, Italian ([6]; 31 g ai/ha) | Plant response rating, Ryegrass, Italian ([6]; 62 g ai/ha) | Plant response rating, Bromegrass, Downy ([7]; 31 g ai/ha) | Plant response rating, Foxtail, Millet ([9]; 31 g ai/ha) | Plant response rating, Signalgrass ([10]; 31 g ai/ha) | Plant response rating, Foxtail, Green ([11]; 31 g ai/ha) | Plant response rating, Foxtail, Yellow ([12]; 31 g ai/ha) | Plant response rating, Cupgrass, Woolly ([13]; 31 g ai/ha) | Plant response rating, Cupgrass, Woolly ([13]; 62 g ai/ha) | Plant response rating, Oat, Wild ([15]; 31 g ai/ha) | Plant response rating, Oat, Wild ([15]; 62 g ai/ha) | Plant response rating, Oat, Wild ([15]; 125 g ai/ha) | Plant response rating, Blackgrass ([16]; 31 g ai/ha) | Plant response rating, Nightshade ([20]; 31 g ai/ha) | Plant response rating, Wheat, Winter ([21]; 31 g ai/ha) | Plant response rating, Wheat, Winter ([21]; 62 g ai/ha) | Plant response rating, Wheat, Spring ([22]; 31 g ai/ha) | Plant response rating, Wheat, Spring ([22]; 62 g ai/ha) | Plant response rating, Wheat, Spring ([22]; 125 g ai/ha) | Plant response rating, Sorghum ([23]; 31 g ai/ha) | Plant response rating, Sorghum ([23]; 62 g ai/ha) | Plant response rating, Cotton ([24]; 31 g ai/ha) | Plant response rating, Cotton ([24]; 62 g ai/ha) | Plant response rating, Cotton ([24]; 125 g ai/ha) | Plant response rating, Cotton ([24]; 250 g ai/ha) | Plant response rating, Itchgrass ([25]; 31 g ai/ha)
40: Plant response rating, Bluegrass ([3]; 62 g ai/ha) | Plant response rating, Nightshade ([20]; 62 g ai/ha) | Plant response rating, Nightshade ([20]; 125 g ai/ha)
100: Plant response rating, Field Violet ([2]; 250 g ai/ha) | Plant response rating, Bluegrass ([3]; 125 g ai/ha) | Plant response rating, Bluegrass ([3]; 250 g ai/ha) | Plant response rating, Canarygrass ([4]; 125 g ai/ha) | Plant response rating, Canarygrass ([4]; 250 g ai/ha) | Plant response rating, Millet ([5]; 250 g ai/ha) | Plant response rating, Goosegrass ([8]; 62 g ai/ha) | Plant response rating, Goosegrass ([8]; 125 g ai/ha) | Plant response rating, Goosegrass ([8]; 250 g ai/ha) | Plant response rating, Foxtail, Millet ([9]; 62 g ai/ha) | Plant response rating, Foxtail, Millet ([9]; 125 g ai/ha) | Plant response rating, Foxtail, Millet ([9]; 250 g ai/ha) | Plant response rating, Foxtail, Yellow ([12]; 125 g ai/ha) | Plant response rating, Foxtail, Yellow ([12]; 250 g ai/ha) | Plant response rating, Barnyardgrass ([14]; 62 g ai/ha) | Plant response rating, Barnyardgrass ([14]; 125 g ai/ha) | Plant response rating, Barnyardgrass ([14]; 250 g ai/ha) | Plant response rating, Blackgrass ([16]; 125 g ai/ha) | Plant response rating, Blackgrass ([16]; 250 g ai/ha) | Plant response rating, Ducksalad [17] | Plant response rating, Umbrella Sedge [18] | Plant response rating, Waterhemp ([19]; 62 g ai/ha) | Plant response rating, Waterhemp ([19]; 125 g ai/ha) | Plant response rating, Waterhemp ([19]; 250 g ai/ha) | Plant response rating, Sorghum ([23]; 250 g ai/ha)
15: Plant response rating, Barnyardgrass ([14]; 31 g ai/ha) | Plant response rating, Wheat, Winter ([21]; 125 g ai/ha) | Plant response rating, Wheat, Spring ([22]; 250 g ai/ha) | Plant response rating, Itchgrass ([25]; 62 g ai/ha)
50: Plant response rating, Ryegrass, Italian ([6]; 250 g ai/ha) | Plant response rating, Bromegrass, Downy ([7]; 125 g ai/ha) | Plant response rating, Signalgrass ([10]; 62 g ai/ha) | Plant response rating, Itchgrass ([25]; 250 g ai/ha)
45: Plant response rating, Nightshade ([20]; 250 g ai/ha)
